According to ChEMBL document CHEMBL4513161, “CO-ADD screening of MMV (CH) - Pandemic Response Box” (2021):
In brackets after ≈: the same amount, converted by molar mass. Structures can show the parent of a compound that is named as a salt.

How the values were obtained:
Staphylococcus aureus = assay: microbe, parasite or virus in culture; details: ATCC 43300, 18 h, ASSAY_TEST Inhibition of Bacterial Growth, detection method Absorption (OD600), MEDIA CAMHB, plate type 384well, NBS, CORNING #3640
Pseudomonas aeruginosa [1] = assay: Antibacterial activity against Pseudomonas aeruginosa PAO397 [PAO1 d(mexAB-oprM) d(mexCD-oprJ) d(mexEF-oprN) d(mexJKL) d(mexXY) d(opmH)] (CO-ADD:GN_211); MIC in CAMBH media using NBS plates, by OD(600); type: functional; details: ASSAY_TEST Inhibition of Bacterial Growth, detection method Absorption (OD600), MEDIA CAMHB, plate type 384well, CORNING #3640, time 18 hr
Acinetobacter baumannii = assay: microbe, parasite or virus in culture; details: ATCC 19606, 18 h, ASSAY_TEST Inhibition of Bacterial Growth, detection method Absorption (OD600), MEDIA CAMHB, plate type 384well, NBS, CORNING #3640
Candida albicans = assay: microbe, parasite or virus in culture; details: ATCC 90028, ASSAY_TEST Inhibition of Fungal Growth, detection method Absorption (OD530), plate type 384well, NBS, CORNING #3640
Escherichia coli = assay: microbe, parasite or virus in culture; details: ATCC 25922, 18 h, ASSAY_TEST Inhibition of Bacterial Growth, detection method Absorption (OD600), MEDIA CAMHB, plate type 384well, NBS, CORNING #3640
HEK293 = assay: cells; type: functional, Homo sapiens, ATCC CRL1573; details: Homo sapiens, ATCC CRL1573, HEK293; ASSAY_TEST Inhibition of Cell Viability; detection method Resazurin; Fluorescence (ex560/em590); MEDIA DMEM with 10% FBS; plate type 384well; TC; CORNING #3712; time 18 hr; read-out: CC50
Pseudomonas aeruginosa [2] = assay: microbe, parasite or virus in culture; details: ATCC 27853, 18 h, ASSAY_TEST Inhibition of Bacterial Growth, detection method Absorption (OD600), MEDIA CAMHB, plate type 384well, NBS, CORNING #3640
Klebsiella pneumoniae = assay: microbe, parasite or virus in culture; details: ATCC 700603, 18 h, ASSAY_TEST Inhibition of Bacterial Growth, detection method Absorption (OD600), MEDIA CAMHB, plate type 384well, NBS, CORNING #3640

Compound | MIC (Cryptococcus neoformans) [µM] | MIC (Staphylococcus aureus) [µM] | MIC (Pseudomonas aeruginosa [1]) [µM] | MIC (Acinetobacter baumannii) [µM] | MIC (Candida albicans) [µM] | MIC (Escherichia coli) [µM] | MIC (Pseudomonas aeruginosa [2]) [µM] | MIC (Klebsiella pneumoniae) [µM] | CC50 (HEK293) [µM]
O=C(O)CCNC(=O)c1ccccc1 [BETAMIPRON] | > 20 | > 20 | > 20 | > 20 | > 20 | > 20 | > 20 | > 20 | > 20
C=C(C)[C@@H]1CC[C@]2(C(=O)O)CC[C@]3(C)[C@H](CC[C@@H]4[C@@]5(C)CC[C@H](O)C(C)(C)[C@@H]5CC[C@]43C)[C@@H]12 [BETULINIC ACID] | > 20 | > 20 | > 20 | > 20 | > 20 | > 20 | > 20 | > 20 | > 20
CC[C@H](NC(=O)[C@H](C)NC)C(=O)N1C[C@@H](O)C[C@H]1Cc1c(-c2[nH]c3cc(F)ccc3c2C[C@@H]2C[C@H](O)CN2C(=O)[C@H](CC)NC(=O)[C@H](C)NC)[nH]c2cc(F)ccc12 [BIRINAPANT] | > 20 | > 20 | > 20 | > 20 | > 20 | > 20 | > 20 | > 20 | > 20
CC(C)(C)NC(=O)N[C@H](C(=O)N1C[C@H]2[C@@H]([C@H]1C(=O)NC(CC1CCC1)C(=O)C(N)=O)C2(C)C)C(C)(C)C (stereo not given in full) [BOCEPREVIR] | > 20 | > 20 | > 20 | > 20 | > 20 | > 20 | > 20 | > 20 | > 20
Nc1nc(=O)c(Br)c(-c2ccccc2)[nH]1 [BROPIRIMINE] | > 20 | > 20 | > 20 | > 20 | > 20 | > 20 | > 20 | > 20 | > 20
CN(Cc1ccc(C(C)(C)C)cc1)Cc1cccc2ccccc12 [BUTENAFINE HYDROCHLORIDE] | 5 | > 20 | > 20 | > 20 | > 20 | > 20 | > 20 | > 20 | > 20
COC(=O)Nc1nc2ccccc2[nH]1 [CARBENDAZIM] | > 20 | > 20 | > 20 | > 20 | > 20 | > 20 | > 20 | > 20 | 15.5
CO/N=C(\C(=O)N[C@@H]1C(=O)N2C(C(=O)OCOC(=O)C(C)(C)C)=C(/C=C\c3scnc3C)CS[C@H]12)c1csc(N)n1 [CEFDITOREN PIVOXIL] | > 20 | > 20 | > 20 | > 20 | > 20 | > 20 | > 20 | > 20 | > 20
Cc1c(N)cccc1Cn1ccc(OCCc2cccs2)cc1=O [CG-400549] | > 20 | 0.625 (≈ 0.213 µg/mL) | > 20 | > 20 | > 20 | > 20 | > 20 | > 20 | > 20
CCN(CC)CCCC(C)Nc1ccnc2cc(Cl)ccc12 (stereo not given) [CHLOROQUINE] | > 20 | > 20 | > 20 | > 20 | > 20 | > 20 | > 20 | > 20 | > 20
Cc1cc(C2CCCCC2)n(O)c(=O)c1 [CICLOPIROX] | 5 (≈ 1.04 µg/mL) | > 20 | > 20 | > 20 | 5 (≈ 1.04 µg/mL) | > 20 | > 20 | > 20 | 3.98
COc1ccccc1CN[C@H]1C2CCN(CC2)[C@H]1C(c1ccccc1)c1ccccc1 [CP-96345] | > 20 | > 20 | > 20 | > 20 | > 20 | > 20 | > 20 | > 20 | > 20

More lines, main results first:

MIC (Cryptococcus neoformans) [µM] | MIC (Staphylococcus aureus) [µM] | MIC (Pseudomonas aeruginosa [1]) [µM] | MIC (Acinetobacter baumannii) [µM] | MIC (Candida albicans) [µM] | MIC (Escherichia coli) [µM] | MIC (Pseudomonas aeruginosa [2]) [µM] | MIC (Klebsiella pneumoniae) [µM] | Compound | CC50 (HEK293) [µM]
> 20 | > 20 | > 20 | > 20 | > 20 | > 20 | > 20 | > 20 | O=C(O)c1cc(-c2ccccc2)nc2ccccc12 [CINCHOPHEN] | > 20
> 20 | > 20 | > 20 | > 20 | > 20 | > 20 | > 20 | > 20 | Clc1ccc(Cn2c(CN3CCCC3)nc3ccccc32)cc1 [CLEMIZOLE] | > 20
> 20 | > 20 | 20 | > 20 | > 20 | > 20 | > 20 | > 20 | CCC[C@@H]1C[C@@H](C(=O)N[C@@H]([C@H]2O[C@H](SC)[C@H](O)[C@@H](O)[C@H]2O)[C@H](C)Cl)N(C)C1 [CLINDAMYCIN HYDROCHLORIDE] | > 20
> 20 | 1.25 (≈ 0.545 µg/mL) | > 20 | > 20 | > 20 | > 20 | > 20 | > 20 | Cc1onc(-c2ccccc2Cl)c1C(=O)N[C@@H]1C(=O)N2[C@@H]1SC(C)(C)[C@@H]2C(=O)O [CLOXACILLIN] | > 20
> 20 | 0.312 (≈ 0.16 µg/mL) | 20 (≈ 10.3 µg/mL) | > 20 | > 20 | > 20 | > 20 | > 20 | O=c1cc(NCCCN[C@@H]2CCOc3c(Br)cc(Br)cc32)[nH]c2ccsc12 [CRS-3123] | > 20
> 20 | > 20 | 20 (≈ 8.52 µg/mL) | > 20 | > 20 | > 20 | > 20 | > 20 | O=C(NO)C1(CS(=O)(=O)c2ccc(Oc3ccc(Cl)cc3)cc2)CCOCC1 [CTS-1027] | > 20
> 20 | > 20 | > 20 | > 20 | > 20 | > 20 | > 20 | > 20 | O=C(O)c1ccc(-n2nc(-c3ccccc3O)nc2-c2ccccc2O)cc1 [DEFERASIROX] | > 20
> 20 | > 20 | > 20 | > 20 | > 20 | > 20 | > 20 | > 20 | COc1cc2c(O)c3c(c(-c4ccc5c(c4)OCO5)c2cc1OC)C(=O)OC3 [DIPHYLLIN] | > 20
> 20 | > 20 | > 20 | > 20 | > 20 | > 20 | > 20 | > 20 | CC(C)c1cc2c(cc1S(=O)(=O)O)[C@@]1(C)CCC[C@@](C)(C(=O)O)[C@@H]1CC2 [ECABET] | > 20
> 20 | > 20 | 20 (≈ 14.7 µg/mL) | > 20 | > 20 | > 20 | 20 (≈ 14.7 µg/mL) | > 20 | CC[C@H]1OC(=O)[C@H](C)[C@@H](O[C@H]2C[C@@](C)(OC)[C@@H](O)[C@H](C)O2)[C@H](C)[C@@H](O[C@@H]2O[C@H](C)C[C@H](N(C)C)[C@H]2O)[C@](C)(O)C[C@@H](C)C(=O)[C@H](C)[C@@H](O)[C@]1(C)O [ERYTHROMYCIN] | > 20
> 20 | > 20 | > 20 | > 20 | > 20 | > 20 | > 20 | > 20 | CC[C@@H](CO)NCCN[C@@H](CC)CO [ETHAMBUTOL] | > 20
> 20 | > 20 | > 20 | > 20 | > 20 | > 20 | > 20 | > 20 | O=C1[C@H](CC[C@H](O)c2ccc(F)cc2)[C@@H](c2ccc(O)cc2)N1c1ccc(F)cc1 [EZETIMIBE] | > 20
0.312 (≈ 0.0935 µg/mL) | > 20 | > 20 | > 20 | > 20 | > 20 | > 20 | > 20 | COC(=O)Nc1nc2cc(Sc3ccccc3)ccc2[nH]1 [FENBENDAZOLE] | 8.24
